Assay results: patent US20240252654A1, “IMPROVED SMALL MOLECULES” (University of Dundee, priority 2020, published 2024)

Tests used:
BRD2 and BRD4 = experiment: Dose-response degradation immunoblot in RCC4-HA-VHL cells; format: cell-based; conditions: 6 h, 500 nM to 6.4 pM
Method: Compound MN674 was designed and synthesised as another analogue of SIM1. […] MN674 was tested in the mammalian cell line RCC4-HA-VHL in a dose-response degradation assay. The assay involved immunoblots (see FIG. 21 for raw western blot data and FIG. 22 for dose-response curves) displaying 6 hour treatments of eight 5-fold serial dilutions from 500 nM to 6.4 pM of each compound. […] RCC4-HA-VHL cells were exposed to eight 5-fold serial dilutions (from 500 nM to […]) of heterotrivalent Bet-Bet-VHL PROTACs SIM1 and MN674 for 6 hour treatments, before lysates were harvested and analysed on immunoblots (FIG. 21). A Bio-Rad MP imaging system was used for fluorescence detection of BRD2 (IRDye 800CW), BRD4_long (IRDye 800CW), BRD4_short (IRDye 800CW) and house-keeping gene Tubulin (Rhodamine). The intensities of the bands were determined using ImageLab software and all BET protein intensities normalised to Tubulin in order to convert them into a percentage band intensity rationalised to the 0.1% DMSO-only control. These intensities were then plotted in GraphPad Prism for Dose-Response [Inhibition] Variable slope (four parameter) analyses to generate the curves for BRD2 (FIG. 22a) and BRD4 (FIG. 22b), to determine the DC50 values presented in Table 3 (FIG. 20). The experiment is representative of n=2 i.e. biological duplicate.

MV4; 11 cells = experiment: Correlative cell viability in cMyc-HiBiT MV4;11 cells (CellTiter-Glo); format: cell-based; conditions: 1 nM, after 6 h
Method: Monitoring cMyc Loss and Cell Viability in MV4; 11 Cells. CRISPR cMyc-HiBiT MV4; 11 cells (Promega) were plated at a density of 5×10^4 cells per well in solid, white 96-well tissue culture plates (Corning Costar #3917). Following an overnight incubation, they were treated with 1-100 nM concentration of the indicated compounds and at the plotted time points, cMyc levels were determined using luminescent measurement with NanoGlo HiBiT lytic reagent (Promega). Replicate plate of all compound treatments were prepared and at identical timepoints as the protein level measurements, cell viability was measured using Cell-Titer Glo (Promega). Plates were shaken on an orbital shaker for 10-20 min before reading luminescence on a GloMax Discover Microplate Reader (Promega).

22Rv1 cells = experiment: PARP cleavage immunoblot in 22Rv1 cells; format: cell-based; conditions: 22Rv1, 10 nM, 24 h (MT1, MZ1 up to 48 h)
Method: Next, the inventors assessed the functional effects of SIM1 on the viability of 22Rv1 cancer cells. […] Cells died of apoptosis as indicated by prevented cleavage of PARP upon co-treatment with QVD-OPh, a pan-caspase inhibitor, and not of necroptosis, as shown by co-treatment with Necrostatin-1 (FIG. 3d and FIG. 10a).
Degradation assays. MV4; 11 cells were seeded at 1×10^6 cells/mL of 10 cm dishes 12-24 h before treatment. 22Rv1 and HEK293 cells were seeded at 2.5-6×10^5 cells/well of 6 well plates 12-24 h before treatment. Cells were treated with test compounds with and without inhibitors as indicated or an equivalent volume of DMSO and lysed at the stated time point. For lysis, cells were washed twice in ice cold PBS (Invitrogen) then lysed in 250 μL/plate for MV4; 11 cells or 80 μL/well for 22Rv1 and HEK293 cells of ice cold lysis buffer containing 50 mM Tris hydrochloride pH 7.4, 150 mM sodium chloride, 1 mM EDTA pH 7.4, 1% v/v Triton X-100, 1×Halt™ Protease Inhibitor Cocktail (ThermoFisher). […] Protein concentration was determined by BCA assay (Pierce) and the absorbance at 562 nm measured by spectrophotometry (NanoDrop ND1000). […] Bands were detected using a ChemiDoc MP imaging system (BioRad) and quantified (Image Studio Lite, version 5.2) with normalisation to β-actin and the DMSO control per time point. […]

HiBiT-BRD4 [1] = molecular target: T1, HiBiT-BRD4 (Homo sapiens, UniProt O60885); experiment: NanoBRET target engagement, permeabilized and live cells; format: cell-based
T1 construct: endogenously HiBiT tag the N-terminal genomic loci of BRD2, BRD3, or BRD4; endogenous in cells; host or cells: HEK293 stably expressing LgBiT, CRISPR/Cas9 edited
Method: Cells were treated with a fluorescent BET tracer, then incubated with the indicated compounds at various concentrations to measure competitive displacement.
(§1) NanoBRET Target Engagement and Residence Time. For target engagement experiments in live and permeabilized cells, CRISPR HiBiT-BRD4 HEK293 cells stably expressing LgBiT were plated into white 96-well tissue culture plates at a density of 2×10^4 cells/well. Cells were equilibrated for 1 h with energy transfer probes and the indicated test compound prior to NanoBRET measurements. NanoBRET tracers were prepared at a working concentration of 20× in tracer dilution buffer (12.5 mM HEPES, 31.25% PEG-400, pH 7.5). NanoBRET BRD Tracer-02 was added to cells at a final concentration of 0.5 μM. To measure NanoBRET in live cells, NanoBRET NanoGlo Substrate and Extracellular NanoLuc Inhibitor (Promega) were added according to the manufacturer's recommended protocol, and filtered luminescence was measured on a GloMax Discover luminometer equipped with 450 nm BP filter (donor) and 600 nm LP filter (acceptor) using 0.3 s integration time. To measure NanoBRET in permeabilized cells, digitonin was added to the cells to a final concentration of 50 μg/mL and Extracellular NIuc inhibitor was omitted during the detection step. […] Cells were incubated in 15 mL conical tubes with caps loosened in a tissue culture incubator for 1 h. Following incubation, cells were spun at 300×g for 5 min, washed once with Opti-MEM, spun a second time at 300×g for 5 min, then resuspended with fresh Opti-MEM before plating at 2×10^4 cells/well. NanoBRET BRD Tracer-02 was added at a final concentration of 0.5 μM cells and kinetic NanoBRET measurements were collected on a GloMax Discover. NanoBRET ratios were expressed in milliBRET units and calculated according to the equation in the NanoBRET Ubiquitination, Ternary Complex and Biosensor Experiments section.

HiBiT-BRD4 [2] = molecular target: T1, HiBiT-BRD4; experiment: NanoBRET live cell residence time; format: cell-based; conditions: live cells
Method: as §1

[3] = tested on: VHL and full-length BRD4 WT, N140F, or N433F; experiment: Kinetic NanoBRET ternary complex assay, NanoLuc-BRD4 with HaloTag-VHL; format: cell-based, human
Method: NanoBRET Ubiquitination, Ternary Complex, and Biosensor Experiments. For endogenous live cell BET:Ubiquitin and BET:VHL assays, CRISPR HiBiT-BRD2, HiBiT-BRD3, and HiBiT-BRD4 HEK293 cells stably expressing LgBiT were transfected with 2 μg of HaloTag-UBB or HaloTag-VHL vectors in 6-well plates using FuGENE HD (Promega). For full transient NanoBRET experiments with NanoLuc-BRD4 WT, N433F, or N140F mutants, HEK293 cells (8×10^5) were co-transfected with 0.02 μg NanoLuc-BRD4 and 2 μg of HaloTag-VHL vectors. For transient NanoBRET experiments with the BRD4 NL-BD1-BD2-HT biosensor containing either the WT tandem BD1-BD2 domain (AA 44-460) or containing the N433F mutation, HEK293 cells (8×10^5) were transfected with 0.02 μg biosensor plasmid and 2 μg carrier DNA. […] NanoBRET NanoGlo (Promega) substrate was added and BRET was measured two hours post-compound treatment using a GloMax Discover Microplate Reader (Promega). Dual filtered luminescence was collected with a 460/80 nm bandpass filter and a 610 nm long pass filter (acceptor, HaloTag NanoBRET ligand) using an integration time of 0.5 s. For all NanoBRET experiments, background subtracted NanoBRET ratios expressed in milliBRET units were calculated from the equation: […]

SMILES | degradation potency relative to SIM1 (BRD2 and BRD4) | measurable cellular death (MV4; 11 cells) | PARP cleavage / cell death (22Rv1 cells) | IC80 (HiBiT-BRD4 [1]; live cell format, unit given with each value, read-out: IC80 for tracer displacement) [nM] | binding to endogenous HiBiT-BRD4 (HiBiT-BRD4 [1]; permeabilized cells) | residence time on BRD4 (HiBiT-BRD4 [2]) | ternary complex formation [3]
Cc1ncsc1-c1ccc(CNC(=O)[C@@H]2C[C@@H](O)CN2C(=O)[C@@H](NC(=O)COCC(C)(COCCOCCNC(=O)C[C@@H]2N=C(c3ccc(Cl)cc3)c3c(sc(C)c3C)-n3c(C)nnc32)COCCOCCNC(=O)C[C@@H]2N=C(c3ccc(Cl)cc3)c3c(sc(C)c3C)-n3c(C)nnc32)C(C)(C)C)cc1 [MN674, N,N′-(8-((2-(((S)-1-((2S,4R)-4-hydroxy-2-((4-(4-methylthiazol-5-yl)benzyl)carbamoyl)pyrrolidin-1-yl)-3,3-dimethyl-1-oxobutan-2-yl)amino)-2-oxoethoxy)methyl)-8-methyl-3,6,10,13-tetraoxapentadecane-1,15-diyl)bis(2-((S)-4-(4-chlorophenyl)-2,3,9-trimethyl-6H-thieno[3,2-f][1,2,4]triazolo[4,3-a][1,4]diazepin-6-yl)acetamide)] | comparable in degradation potencies to SIM1 |  |  |  |  |  | 
Cc1sc2c(c1C)C(c1ccc(Cl)cc1)=N[C@@H](CC(=O)NCCOCCOCCOCCOCCOCCOCCOCCNC(=O)C[C@@H]1N=C(c3ccc(Cl)cc3)c3c(sc(C)c3C)-n3c(C)nnc31)c1nnc(C)n1-2 [MT1] |  | not | did not cause observable PARP cleavage | 100 | near-identical binding affinities and IC50 values | longer residence time | not
